Patent US20150010928A1, “MEANS AND METHODS FOR ASSESSING AN ENDOCRINE DISEASE OR DISORDER” (priority 2012, published 2015)
Marks after values point to notes of the source that are not given here.

System: male rats
Test: Plasma metabolite profiling (GC-MS, LC-MS, SPE-LC-MS) in male rats dosed once daily over 28 days (OECD 407)
Assay type: in vivo, rat
Conditions: high dose; for 3-Hydroxybutyrate, ratio versus control / 18-Hydroxy-11-deoxycorticosterone, ratio versus control / Ceramide (d18:1, C24:1), ratio versus control / Coenzyme Q10, ratio versus control / Corticosterone, ratio versus control / Metanephrine, ratio versus control / Tricosanoic acid (C23:0), ratio versus control / alpha-Tocopherol, ratio versus control / trans-4-Hydroxyproline, ratio versus control: male rats, plasma
Method in brief: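 Metabolites were measured by GC-MS (derivatised) and reversed-phase LC-MS, with steroids by online SPE-LC-MS, in plasma drawn from fasted rats on days 7, 14 and 28 of once-daily dosing (5/sex/group). Values are ratios versus sex-matched untreated controls, normalized to pool samples, with Welch-test p-values.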

`CC(=O)O[C@]1(C(C)=O)CC[C@H]2[C@@H]3C=C(Cl)C4=CC(=O)[C@@H]5C[C@@H]5[C@]4(C)[C@H]3CC[C@@]21C` [Cyproteron Acetate] was tested, and the “21-Hydroxyprogesterone (11-Deoxycorticosterone)” value (m14, Table 11b) was 0.41 *, the Citrate (m14, Table 11b) was 0.73 * and the “Coenzyme Q9” value (m14, Table 11b) was 0.74 *. The “Coenzyme Q10” value (m14, Table 11b) was 0.86^, the Corticosterone (m14, Table 11b) was 0.01 * and the Metanephrine (m14, Table 11b) was 0.66 *. For the same compound, the “Palmitoleic acid (C16:cis[9]1)” value (m14, Table 11b) was 0.74 *, the “Phosphatidylcholine (C16:0, C16:0)” value (m14, Table 11b) was 0.87 * and the Progesterone (m14, Table 11b) was 0.54 *. For the same compound, the trans-4-Hydroxyproline (m14, Table 11b) was 0.44 *, the 3-Methoxytyrosine (m28, Table 11a) was 2.05 * and the “3-O-Methylsphingosine (d18:1)” value (m28, Table 11a) was 2.98 *. For the same compound, the “5-O-Methylsphingosine (d18:1)” value (m28, Table 11a) was 2.54 *, the Androstenedione (m28, Table 11a) was 0.94^ and the “Arachidonic acid (C20:cis[5,8,11,14]4)” value (m28, Table 11a) was 2.35 *. The “Behenic acid (C22:0)” value (m28, Table 11a) was 1.57 *, the Cholesterol (m28, Table 11a) was 1.97 * and the Cysteine (m28, Table 11a) was 1.54 *. For the same compound, the Dodecanol (m28, Table 11a) was 1.52 *, the “Eicosanoic acid (C20:0)” value (m28, Table 11a) was 1.71 * and the “Galactose, lipid fraction” value (m28, Table 11a) was 1.68 *. For the same compound, the “Glycerol phosphate, lipid fraction” value (m28, Table 11a) was 2.16 *, the Histidine (m28, Table 11a) was 1.37 * and the Indole-3-lactic acid (m28, Table 11a) was 1.15 *. The “Lignoceric acid (C24:0)” value (m28, Table 11a) was 1.9 *, the “Nervonic acid (C24:cis[15]1)” value (m28, Table 11a) was 2.83 * and the “Noradrenaline (Norepinephrine)” value (m28, Table 11a) was 1.39 *. The “Phosphate, lipid fraction” value (m28, Table 11a) was 1.86 *, the “Phosphatidylcholine (C18:0, C18:2)” value (m28, Table 11a) was 1.03^ and the “Phosphatidylcholine (C18:0, C20:3)” value (m28, Table 11a) was 1.18 *. The “Phosphatidylcholine (C18:0, C22:6)” value (m28, Table 11a) was 1.67 *, the “Phosphatidylcholine (C18:0,C18:1)” value (m28, Table 11a) was 1.55* and the Phytosphingosine (m28, Table 11a) was 1.68 *. For the same compound, the “Stearic acid (C18:0)” value (m28, Table 11a) was 2.71 *, the Testosterone (m28, Table 11a) was 0.56^ and the Threonine (m28, Table 11a) was 1.73 *. For the same compound, the “Tricosanoic acid (C23:0)” value (m28, Table 11a) was 1.39 *, the Tryptophan (m28, Table 11a) was 1.14 * and the alpha-Tocopherol (m28, Table 11a) was 1.44 *. For the same compound, the beta-Sitosterol (m28, Table 11a) was 2.6 *, the “dihomo-gamma-Linolenic acid (C20:cis[8,11,14]3)” value (m28, Table 11a) was 4.01 * and the “erythro-Sphingosine (d18:1)” value (m28, Table 11a) was 2.2 *. For the same compound, the “myo-Inositol-2-phosphate, lipid fraction” value (m28, Table 11a) was 3.26 *, the “threo-Sphingosine (d18:1)” value (m28, Table 11a) was 2.13 * and the 3-Hydroxybutyrate (m28, Table 11b) was 0.68 *. The “4-Hydroxy-3-methoxyphenylglycol (HMPG)” value (m28, Table 11b) was 0.82 *, the 18-Hydroxy-11-deoxycorticosterone (m28, Table 11b) was 0 * and the “21-Hydroxyprogesterone (11-Deoxycorticosterone)” value (m28, Table 11b) was 0.01 *. For the same compound, the Citrate (m28, Table 11b) was 0.81, the “Coenzyme Q9” value (m28, Table 11b) was 0.59 * and the “Coenzyme Q10” value (m28, Table 11b) was 0.7 *. The Corticosterone (m28, Table 11b) was 0 *, the Metanephrine (m28, Table 11b) was 0.58 * and the “Palmitoleic acid (C16:cis[9]1)” value (m28, Table 11b) was 1.42 *. The “Phosphatidylcholine (C16:0, C16:0)” value (m28, Table 11b) was 0.79 *, the Progesterone (m28, Table 11b) was 0.03 * and the trans-4-Hydroxyproline (m28, Table 11b) was 0.52 *. The “3-Hydroxybutyrate, ratio versus control” value (day 7) was 0.58 *, the “18-Hydroxy-11-deoxycorticosterone, ratio versus control” value (day 7) was 0.08 * and the “Ceramide (d18:1, C24:1), ratio versus control” value (“Ceramide … ratio versus control” below) (day 7) was 1. For the same compound, the “Coenzyme Q10, ratio versus control” value (day 7) was 0.49 *, the “Corticosterone, ratio versus control” value (day 7) was 0.04 * and the “Metanephrine, ratio versus control” value (day 7) was 0.91. The “Tricosanoic acid (C23:0), ratio versus control” value (day 7) was 1.48 *, the “alpha-Tocopherol, ratio versus control” value (day 7) was 1.22 * and the “trans-4-Hydroxyproline, ratio versus control” value (day 7) was 0.53 *. The “3-Hydroxybutyrate, ratio versus control” value (day 14) was 0.73 *, the “18-Hydroxy-11-deoxycorticosterone, ratio versus control” value (day 14) was 0.08 * and the “Ceramide … ratio versus control” value (day 14) was 1.47 *. For the same compound, the “Coenzyme Q10, ratio versus control” value (day 14) was 0.86, the “Corticosterone, ratio versus control” value (day 14) was 0.01 * and the “Metanephrine, ratio versus control” value (day 14) was 0.66 *. The “Tricosanoic acid (C23:0), ratio versus control” value (day 14) was 1.3 *, the “alpha-Tocopherol, ratio versus control” value (day 14) was 1.32 * and the “trans-4-Hydroxyproline, ratio versus control” value (day 14) was 0.44 *. The “3-Hydroxybutyrate, ratio versus control” value (day 28) was 0.68 *, the “18-Hydroxy-11-deoxycorticosterone, ratio versus control” value (day 28) was 0.02 * and the “Ceramide … ratio versus control” value (day 28) was 2.22 *. For the same compound, the “Coenzyme Q10, ratio versus control” value (day 28) was 0.7 *, the “Corticosterone, ratio versus control” value (day 28) was 0 * and the “Metanephrine, ratio versus control” value (day 28) was 0.58 *. The “Tricosanoic acid (C23:0), ratio versus control” value (day 28) was 1.39 *, the “alpha-Tocopherol, ratio versus control” value (day 28) was 1.44 * and the “trans-4-Hydroxyproline, ratio versus control” value (day 28) was 0.52 *.
